Activity calls are given as the source filed them. The calls are words filed in the database; no cut-off is given here.
Columns and labels:
[1] = biological target: Myc proto-oncogene protein (Homo sapiens) (UniProt P01106); test: Binding affinity to MYC in human PC-3 cells assessed as decrease in melting temperature at 10 uM with 37 to 52 degreeC incubated for 1 hr by CETSA based Western blotting analysis; assay type: cell-based
[2] = Clearance in Sprague-Dawley rat at 2 mg/kg,iv administration by LC-MS/MS analysis; assay type: ADME, organism-based; settings: in vivo
[3] = biological target: Myc proto-oncogene protein (Homo sapiens) (UniProt P01106); test: Inhibition of MYC in human PC-3 cells assessed as downregulation of MYC expression incubated for 24 hrs by Western blotting analysis; assay type: cell-based
[4] = system: A549; test: Antiproliferative activity against human A549 cells assessed as inhibition of cell growth incubated for 72 hrs by MTT assay; assay type: functional, cell-based; settings: A549, 72 h
[5] = Half life in Sprague-Dawley rat at 10 mg/kg,ip administration by LC-MS/MS analysis; assay type: ADME, organism-based; settings: in vivo
[6] = system: PC-3; test: Antitumor activity against human PC-3 cells xenografted in BALB/C mouse assessed as reduction in tumor weight at ip administrated daily for 21 consecutive days; assay type: functional, organism-based
[7] = Toxicity in BALB/C mouse xenografted with human PC-3 cells assessed as histopathological change in heart at 50 to 100 mg/kg,ip administrated daily for 21 consecutive days by hematoxylin and eosin staining based microscopic analysis; assay type: organism-based; settings: in vivo, dose 50-100 mg/kg
[8] = Toxicity in FVB mouse implanted with mouse Myc-CaP cells assessed as histopathological change in spleen at 10 to 50 mg/kg,ip administrated daily for 14 consecutive days by hematoxylin and eosin staining based microscopic analysis; assay type: organism-based; settings: in vivo, dose 10-50 mg/kg
[9] = system: Myc-CaP; test: Antitumor activity against mouse Myc-CaP cells implanted in FVB mouse assessed as reduction in tumor volume at ip administrated daily for 14 consecutive days; assay type: functional, organism-based
[10] = Toxicity in BALB/C mouse xenografted with human PC-3 cells assessed as histopathological change in spleen at 50 to 100 mg/kg,ip administrated daily for 21 consecutive days by hematoxylin and eosin staining based microscopic analysis; assay type: organism-based; settings: in vivo, dose 50-100 mg/kg
[11] = system: SK-N-BE(2); test: Antiproliferative activity against human SK-N-BE(2) cells assessed as inhibition of cell growth incubated for 72 hrs by MTT assay; assay type: functional, cell-based; settings: SKNBE2, 72 h
[12] = Volume of distribution at steady state in Sprague-Dawley rat at 10 mg/kg,ip administration by LC-MS/MS analysis; assay type: ADME, organism-based; settings: in vivo
[13] = Cytotoxicity against human HUVEC cells assessed as inhibition of cell growth incubated for 72 hrs by MTT assay; assay type: toxicity, cell-based
[14] = biological target: c-Myc/c-Max (Homo sapiens) (UniProt P01106+P61244); test: Inhibition of MYC/MAX protein-protein interaction in human PC-3 cells at 1 uM incubated for 30 mins; assay type: cell-based
c-Myc/c-Max (Homo sapiens), sequence (P01106 whole entry): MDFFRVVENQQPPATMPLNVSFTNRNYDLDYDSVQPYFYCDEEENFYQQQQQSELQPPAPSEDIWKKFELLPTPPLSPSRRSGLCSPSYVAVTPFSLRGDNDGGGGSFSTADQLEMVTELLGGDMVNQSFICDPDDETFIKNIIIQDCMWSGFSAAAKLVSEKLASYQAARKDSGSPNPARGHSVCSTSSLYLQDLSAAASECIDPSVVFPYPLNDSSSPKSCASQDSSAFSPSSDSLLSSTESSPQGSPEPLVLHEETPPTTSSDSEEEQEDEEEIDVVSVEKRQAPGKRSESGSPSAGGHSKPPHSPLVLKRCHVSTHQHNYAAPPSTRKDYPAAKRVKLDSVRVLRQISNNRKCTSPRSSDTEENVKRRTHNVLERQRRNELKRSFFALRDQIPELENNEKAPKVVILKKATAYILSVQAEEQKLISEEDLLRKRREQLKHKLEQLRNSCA
c-Myc/c-Max (Homo sapiens), sequence (P61244 2-160 partner limits assumed): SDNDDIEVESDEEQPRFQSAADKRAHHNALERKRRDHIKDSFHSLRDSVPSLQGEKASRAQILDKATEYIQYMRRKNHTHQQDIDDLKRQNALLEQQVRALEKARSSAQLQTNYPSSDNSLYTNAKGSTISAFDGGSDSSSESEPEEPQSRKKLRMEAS

[15] = Volume of distribution at steady state in Sprague-Dawley rat at 2 mg/kg,iv administration by LC-MS/MS analysis; assay type: ADME, organism-based; settings: in vivo, read-out: Vdss

Myc proto-oncogene protein (Homo sapiens), sequence (P01106 whole entry): as the sequence (P01106 whole entry) above

Activity [1]: Active
clearance [2]: 23.6 mL/min/kg
inhibition [3]: Dose-Dependent Effect
IC50 [4]: 1.24 µM
half-life [5]: 5.97 h
IC50 [11]: 1.25 µM
Vdss [12]: 38.43 L/kg
inhibition [14]: Active
Vd [15]: 6.41 L/kg
Compound: Oc1c(-c2cc(C(F)(F)F)n[nH]2)ccc(C#CCCN2CCOCC2)c1-c1ccc(Cl)c(C(F)(F)F)c1
Activity [6]: Dose-Dependent Effect
Activity [7]: Non-Toxic
Activity [8]: Non-Toxic
Activity [9]: Dose-Dependent Effect
Activity [10]: Non-Toxic
IC50 at 72 h [13]: 16.6 µM
